Test results taken from publication PMC9703632, “The noncatalytic regions of the tyrosine kinase Tnk1 are important for activity and substrate specificity” (The Journal of Biological Chemistry, 2022).
One block for each molecule: values may come before it.

Legend:
[1] = biological target: T1, Tnk1 (thirty-eight negative kinase 1) (Homo sapiens, UniProt Q13470); experiment: […]-ATP phosphocellulose kinase assay, WASP peptide, dose-response; assay type: biochemical
T1 construct: Tnk1^ΔCT, residues 1-510 (SAM, kinase and SH3 domains), N-terminal 6x-His and GST tags, Sf9
T1 sequence (Q13470 1-510 isoform Q13470-2): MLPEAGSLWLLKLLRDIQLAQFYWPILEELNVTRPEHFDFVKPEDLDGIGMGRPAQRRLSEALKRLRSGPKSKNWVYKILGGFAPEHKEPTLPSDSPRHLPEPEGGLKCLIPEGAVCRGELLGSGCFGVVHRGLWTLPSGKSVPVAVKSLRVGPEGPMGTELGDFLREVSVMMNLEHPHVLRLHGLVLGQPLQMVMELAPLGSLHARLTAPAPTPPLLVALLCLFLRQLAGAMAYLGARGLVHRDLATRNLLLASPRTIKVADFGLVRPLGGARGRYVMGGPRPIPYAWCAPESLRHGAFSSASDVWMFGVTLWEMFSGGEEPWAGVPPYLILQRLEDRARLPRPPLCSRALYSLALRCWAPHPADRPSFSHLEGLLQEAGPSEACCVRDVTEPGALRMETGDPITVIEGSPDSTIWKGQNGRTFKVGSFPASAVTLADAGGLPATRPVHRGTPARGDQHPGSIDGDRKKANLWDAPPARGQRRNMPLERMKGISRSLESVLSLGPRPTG

[2] = biological target: T1, Tnk1 (thirty-eight negative kinase 1); experiment: single-concentration ([…]) inhibition, […]-ATP phosphocellulose kinase assay, WASP peptide; assay type: biochemical; settings: read-out: % inhibition at 10 μM
purified protein = substrate: Nc1ncnc2c1ncn2[C@@H]1O[C@H](COP(=O)(O)OP(=O)(O)OP(=O)(O)O)[C@@H](O)[C@H]1O; experiment: purified protein; assay type: biochemical, Homo sapiens; settings: MgCl2

Molecule: CN1CCN(c2ccc(Nc3ncc(Cl)c(NC[C@H]4CCCO4)n3)cc2)CC1 [(R)-9b]
IC50 [1]: 470 nM

inhibition at 10 µM [2]: 30 to 40%
Molecule: C#Cc1cccc(Nc2ncnc3cc(OCCOC)c(OCCOC)cc23)c1 [erlotinib]

Molecule: COc1cc2ncnc(Nc3ccc(F)c(Cl)c3)c2cc1OCCCN1CCOCC1 [gefitinib]
inhibition at 10 µM [2]: 30 to 40%

B1: Tnk1 (thirty-eight negative kinase 1) (Homo sapiens) (protein)
chain: T1 sequence (Q13470 1-510 isoform Q13470-2)
notes: Tnk1^ΔCT, residues 1-510 (SAM, kinase and SH3 domains), N-terminal 6x-His and GST tags, Sf9
Km (purified protein): 70 µM
